Measurements reported in article PMC11359296, “Poly(2-Deoxy-2-Methacrylamido-D-Glucose)-Based Complex Conjugates of Colistin, Deferoxamine and Vitamin B12: Synthesis and Biological Evaluation” (Pharmaceutics, 2024).
Structures can show the parent of a compound that is named as a salt. Where a SMILES comes first, the peptide text is derived from it. Bridges are numbered along the chain shown (N, C = ends). [ ]: non-standard residue; d: D form. The star is where a group is joined. Octanoyl(6-Me) = CCC(C)CCCCC(=O)*; Dab = NCC[C@H](N)C(=O)O

Key:
[1] = tested on: Human embryonic kidney cells (HEK 293); assay: Cytotoxicity, MTT assay; format: cell-based; settings: HEK 293, MTT, 72 h, n = 6
Experimental: Human embryonic kidney cells (HEK 293) purchased from the Cell Culture Collection of the Institute of Cytology RAS (St. Petersburg, Russia) were used to study the cytotoxicity of the conjugates. HEK 293 cells were cultured at 37 °C in a humidified atmosphere containing 5% CO2 in modified Eagle’s nutrient medium (MEM, Gibco, Billings, MT, USA) containing 1% essential amino acids, 1% L-glutamine, 50 μg/mL streptomycin, 50 U/mL penicillin, and 10 vol% thermally inactivated fetal bovine serum (FBS, HyClone, Logan, UT, USA). A total of 10^4 cells/100 µL/well was seeded into an adhesive 96-well plate and cultured for 1 day. After that, the medium was removed, and 100 µL of MEM with various concentrations of the test conjugates (4–1000 μg/mL with respect to the CT content) was added to each well with cells and incubated for 72 h. […] After the removal of the supernatant, formazan crystals produced by the metabolically viable cells were dissolved in DMSO (50 μL/well) and transferred to clean wells, followed by measuring the absorbance of the solutions at 570 nm using a multiwell plate reader (ThermoFisher Multiskan Labsystems, Waltham, MA, USA).
(§1) In the case of the CT release and conjugate stability experiments, each assay was performed in three repeats. […] The cell permeability assay and antimicrobial activity were analyzed with n = 3 and 4, respectively. […]

[2] = pH 7.4 and 37 °C; cited from earlier work
Experimental: The stability results of PMAG(10)-(DFOA,CT) conjugates with hydrolyzable (aldimine) bonds and reduced aldimine bonds in different media are summarized in Table 4. It was shown that the release in the buffer and the simulated biorelevant medium was consistent. […] Under gastric conditions, the release after 2 h was 20–26%, whereas under intestinal conditions, a release of 6–12% was detected.

[3] = Caco-2 cell permeability assay; format: in vitro ADME, human; settings: Caco-2 monolayer, 21 days culture, apical to basolateral; 0.5 mg/mL according to CT content in 0.01 M phosphate buffer pH 7.2; PBS basolateral; 2 h, sampled every 30 min; B12 by spectrophotometry, CT by HPLC; mean, n = 3; read-out: apparent permeability coefficient (Papp)
Experimental: (§2) The human colon adenocarcinoma cells (Caco-2) obtained from the Cell Culture Collection of the Institute of Cytology RAS (St. Petersburg, Russia) were used to study cell permeability. The study was carried out as described elsewhere. Briefly, Caco-2 cells were cultured in Dulbecco’s modified Eagle medium (DMEM, Biolot, St. Petersburg, Russia) containing L-glutamine, streptomycin/penicillin and 10% FBS in cell culture flasks (area 75 cm^2, Jet Biofil, Guangzhou, China) at 37 °C in a CO2 incubator under humidified conditions. The cultured cells were re-seeded into a new cell culture flask (1:6 ratio) when the cells reached 80–90% confluence. […] The vitamin B12 content and the content of B12-containing conjugates equivalent to vitamin B12 were determined spectrophotometrically, and the CT transferred to the lower chamber was determined by HPLC analysis as described in Section 2.2.2.
(§3) The Papp was calculated as follows:(2) Papp=dQ/dt∗1/A∗C0 where Papp is the apparent permeability coefficient (cm/s), dQ/dt is the permeation rate (µg/s), A is the area of the monolayer (0.3 sm^2), and C0 is the concentration of the test substance in the apical chamber at the initial time point (µg/mL).
as §1

[4] = tested on: P. aeruginosa; settings: concentration range of 0.25–64 µg/mL; cited from earlier work
Source text: The antibacterial activity of free CT and its polymeric conjugates was examined against P. aeruginosa. […] When analyzing the results of the MIC values for the conjugates studied, the following trends can be distinguished.

[5] = tested on: Caco-2 monolayer; assay: Caco-2 cell permeability assay; format: in vitro ADME, human; settings: 21 days culture, apical to basolateral, 0.5 mg/mL according to CT content in 0.01 M phosphate buffer pH 7.2, PBS basolateral, 2 h, sampled every 30 min, B12 by spectrophotometry, CT by HPLC, mean, n = 3
Experimental: as §2, §3, §1

In the case of `CCC(C)CCCCC(=O)N[C@@H](CCN)C(=O)N[C@H](C(=O)N[C@@H](CCN)C(=O)N[C@H]1CCNC(=O)[C@H]([C@@H](C)O)NC(=O)[C@H](CCN)NC(=O)[C@H](CCN)NC(=O)[C@H](CC(C)C)NC(=O)[C@@H](CC(C)C)NC(=O)[C@H](CCN)NC1=O)[C@@H](C)O` (stereo partly drawn) [CT, Polymyxin E (colistin, CT) sulfate salt] ({Octanoyl(6-Me)}-[Dab]T[Dab][Dab][Dab][dL]L[Dab][Dab]T; lactam 4-C; N-terminus assumed), the “concentration up to which no toxicity was found” value ([1]; 4–1000 μg/mL with respect to the CT content) is given as ≤ 250 µg/mL, the “cytotoxicity (in words)” value ([1]; at a concentration of 500 μg/mL (with respect to CT content)) is given as “moderate cytotoxicity” and the “half-life of CT” value [2] is given as 70 h. For the same molecule, the Papp A→B [3] was ~3 ×10⁻⁶ cm/s.

In the case of `CC(=O)N(O)CCCCCNC(=O)CCC(=O)N(O)CCCCCNC(=O)CCC(=O)N(O)CCCCCN` [DFOA, deferoxamine methanesulfonate salt], the “antibacterial properties against P. aeruginosa” value [4] is given as “Neither DFOA nor PMAG is known to possess antibacterial properties”.

In the case of cyanocobalamin [vitamin B12], the “apparent permeability coefficient (Papp)” value [5] was ~ 77 × 10^−6 cm/s.
